Measurements taken from patent EP0097446B1, “Penicillin derivatives and process for preparation of the same” (TAIHO PHARMACEUTICAL COMPANY LIMITED, priority 1982, dated 1984).
Converted amounts (≈) assume the structure as drawn. Read-outs that look alike come from different tables or passages of the source. One block for each molecule: values may come before it.

Tests used:
[1] = molecular target: penicillinase (β-lactamase) from Bacillus SP; assay: β-lactamase inhibitory activity by microiodometry, penicillin G as substrate; assay type: biochemical; settings: read-out: 50% Inhibitory Concentration
Experimental: The inhibitory activity against penicillinase (β-lactamase) from Bacillus SP was measured by . microiodometry [Tanpakushitsu Kakusan Koso (Protein Nucleic Acid Enzyme), vol. 23, No. 5, pp 391-400 (1978)] using a penicillin G as a substrate.

E.coli TH—34 = assay: MIC by micro-broth dilution method; assay type: cell-based; settings: Escherichia coli, 20 h, Table 3, inoculate 10^7 CFU/ml, singly used
Experimental: (§1) The MIC of ampicillin as combined with the present compound (10 µg/ml) was measured against the same bacteria. In the method, the bacteria cultivated in Mueller Hinton Broth (product of DIFCO) and diluted to 10' CFU/ml were inoculated into the same medium containing ampicillin and the present compound in a specific concentration, and incubated at 37°C for 20 hours. […] The bacteria as used in the test were those capable of producing β-lactamase, among which the bacteria marked ^* in the table are those collected from the living body of human hosts and the others are a stock culture.
(§2) The same test as above was carried out to determine the antibacterial activity of the sodium 2β-(4,5-dimethoxycarbonyl-1,2,3-triazole-1-yl)methyl-2a-methylpenam-3a-carboxylate-1,1-dioxide (Compound 26) obtained in Example 24.

P.vulgaris IID OX—19 = assay: MIC by micro-broth dilution method; assay type: cell-based; settings: Proteus vulgaris, 20 h
Experimental: as §1, §2

S.aureus S—54 = assay: MIC by micro-broth dilution method; assay type: cell-based; settings: Staphylococcus aureus
Experimental: as §1, §2

S.aureus ATCC 90124 = assay: MIC by micro-broth dilution method; assay type: cell-based; settings: Staphylococcus aureus, ATCC90124, 20 h
Experimental: as §1, §2

E.coli TH—13 = assay: MIC by micro-broth dilution method; assay type: cell-based; settings: Escherichia coli, 20 h
Experimental: as §1, §2

S.marcescens TH—05 = assay: MIC by micro-broth dilution method; assay type: cell-based; settings: Serratia marcescens, 20 h
Experimental: as §1, §2

P.mirabilis 121—1 = assay: MIC by micro-broth dilution method; assay type: cell-based; settings: Proteus mirabilis, 20 h, Table 3, inoculate 10^7 CFU/ml, singly used
Experimental: as §1, §2

[2] = molecular target: penicillinase (β-lactamase) from Bacillus SP; assay: β-lactamase inhibitory activity by pH stat method, penicillin G as substrate; assay type: biochemical; settings: read-out: 50% β-lactamase inhibitory concentration
[3] = test system: 30 strains of coliform bacilli collected from the living body of humans; assay: MIC50 and MIC70 against 30 clinical strains, antibiotics alone and combined with present compound; assay type: cell-based; settings: for MIC50: Homo sapiens, 20 h, concentration inhibiting growth of 50% of 30 strains; for MIC70, Present compound as combined with ampicillin: MIC of ampicillin with present compound (10 pg/ml [sic]); for MIC70, Present compound as combined with ampicillin / MIC70, Present compound as combined with cephalexin / MIC70, Present compound as combined with mecillinam / MIC70, Present compound as combined with piperacillin: 70% of 30 strains; for MIC70, Present compound as combined with cephalexin: MIC of cephalexin with present compound (10 pg/ml [sic]); for MIC70, Present compound as combined with mecillinam: MIC of mecillinam with present compound (10 pg/ml [sic]); for MIC70, Present compound as combined with piperacillin: MIC of piperacillin with present compound (10 pg/ml [sic])
Experimental: as §1
The compounds of the present invention, ampicillin, mecillinam, piperacillin and cephalexin, each singly used, were also tested for minimal inhibitory concentration against 30 strains of coliform bacilli collected from the living body of humans. The MIC of each antibiotic as combined with the present compound (10 pg/ml) was likewise measured. Table 4 to 7 indicate the results in which MlC50 and MlC70 indicate the minimal inhibitory concentration for inhibiting the growth of 50% and 70% respectively of the strains. The MICs of the present compounds singly used were all more than 25 µg/ml.

P.Mirabilis 121 = assay: MIC by micro-broth dilution method; assay type: cell-based; settings: Proteus mirabilis, 20 h, Table 2, read-out: MIC, Ampicillin (singly used)
Experimental: as §1

E.coli TH—397 = assay: MIC by micro-broth dilution method; assay type: cell-based; settings: Escherichia coli, 20 h, Table 2, read-out: MIC, Ampicillin (singly used)
Experimental: as §1, with “In” for “The MIC of ampicillin as combined with the present compound (10 µg/ml) was measured against the same bacteria. In”

[4] = Table 3, inoculate 10^7 CFU/ml, singly used, read-out: MIC, Comp. 26
[5] = concentration inhibiting growth of 70% of 30 strains
[6] = Table 2, read-out: MIC, Ampicillin (singly used)
[7] = Table 3, inoculate 10^7 CFU/ml, singly used, read-out: MIC, Ampicillin

Structure (SMILES): COC(=O)c1cn(C[C@@]2(C)[C@H](C(=O)O)N3C(=O)C[C@H]3S2(=O)=O)nn1 [Compound 12, sodium 2β-(4-methoxycarbonyl-1,2,3-triazole-1-yl)methyl-2a-methylpenam-3α-carboxylate-1,1-dioxide]
IC50 [1]: 49 nM

Structure (SMILES): COC(=O)c1nnn(C[C@@]2(C)[C@H](C(=O)O)N3C(=O)C[C@H]3S2(=O)=O)c1C(=O)OC [Compound 26, sodium 2β-(4,5-dimethoxycarbonyl-1,2,3-triazole-1-yl)-methyl-2α-methylpenam-3α-carboxylate-1,1-dioxide]
MIC (E.coli TH—34; read-out: MIC, Comp. 26): > 50 µg/mL
MIC (P.vulgaris IID OX—19; [4]): 25 µg/mL
MIC (S.aureus S—54; 20 h, Table 3, inoculate 10^7 CFU/ml, singly used, read-out: MIC, Comp. 26): > 50 µg/mL
MIC (S.aureus ATCC 90124; [4]): > 50 µg/mL
MIC (E.coli TH—13; [4]): > 50 µg/mL
MIC (S.marcescens TH—05; [4]): > 50 µg/mL
MIC (P.mirabilis 121—1; read-out: MIC, Comp. 26): > 50 µg/mL
IC50 [2]: 300 nM

MIC50 ([3]; read-out: MIC50, Mecillinam singly used): 3.13 µg/mL
MIC70, Mecillinam singly used [3, 5]: 12.5 µg/mL
Structure (SMILES): CC1(C)S[C@@H]2[C@H](/N=C/N3CCCCCC3)C(=O)N2[C@H]1C(=O)O [Mecillinam, mecillinam, reference compound]

Structure (SMILES): C[C@]1(Cn2cc(C(=O)O)nn2)[C@H](C(=O)O)N2C(=O)C[C@H]2S1(=O)=O [Compound 16, dipotassium 2β-(4-carboxy-1,2,3-triazole-1-yl)methyl-2α-methylpenam-3α-carboxylate-1,1-dioxide]
IC50 [1]: 600 nM
MIC70, Present compound as combined with ampicillin [3]: 6.25 µg/mL
MIC70, Present compound as combined with cephalexin [3]: 25 µg/mL
MIC70, Present compound as combined with mecillinam [3]: 0.1 µg/mL
MIC70, Present compound as combined with piperacillin [3]: 3.13 µg/mL

Structure (SMILES): C[C@]1(Cn2nncc2C(=O)O)[C@H](C(=O)O)N2C(=O)C[C@H]2S1(=O)=O [Compound 17, dipotassium 2β-(5-carboxy-1,2,3-triazole-1-yl)methyl-2α-methylpenam-3α-carboxylate-1,1-dioxide]
IC50 [1]: 1700 nM
MIC70, Present compound as combined with ampicillin [3]: 100 µg/mL
MIC70, Present compound as combined with cephalexin [3]: 12.5 µg/mL
MIC70, Present compound as combined with mecillinam [3]: 0.39 µg/mL
MIC70, Present compound as combined with piperacillin [3]: 50 µg/mL

Structure (SMILES): C[C@]1(Cn2nnc(C(=O)O)c2C(=O)O)[C@H](C(=O)O)N2C(=O)C[C@H]2S1(=O)=O [Compound 39, tri-sodium 2β-(4,5-dicarboxy-1,2,3-triazole-1-yl)methyl-2α-methylpenam-3α-carboxylate-1,1-dioxide]
IC50 [1]: 2300 nM

Structure (SMILES): CCOC(=O)c1cnnn1C[C@@]1(C)[C@H](C(=O)O)N2C(=O)C[C@H]2S1(=O)=O [Compound 11, sodium 2β-(5-ethoxycarbonyl-1,2,3-triazole-1-yl)methyl-2α-methylpenam-3α-carboxylate-1,1-dioxide]
IC50 [1]: 340 nM
MIC70, Present compound as combined with ampicillin [3]: 100 µg/mL
MIC70, Present compound as combined with cephalexin [3]: 100 µg/mL
MIC70, Present compound as combined with mecillinam [3]: 0.39 µg/mL
MIC70, Present compound as combined with piperacillin [3]: 25 µg/mL

Structure (SMILES): C[C@]1(Cn2cc([Si](C)(C)C)nn2)[C@H](C(=O)O)N2C(=O)C[C@H]2S1(=O)=O [Compound 24, sodium 2α-methyl-2β-(4-trimethylsilyl-1,2,3-triazole-1-yl)-methylpenam-3α-carboxylate-1,1-dioxide]
IC50 [1]: 510 nM

Structure (SMILES): CCOC(=O)c1cn(C[C@@]2(C)[C@H](C(=O)O)N3C(=O)C[C@H]3S2(=O)=O)nn1 [Compound 7, sodium 2β-(4-ethoxycarbonyl-1,2,3-triazole-1-yl)methyl-2α-methylpenam-3α-caboxylate-1,1-dioxide]
IC50 [1]: 54 nM
MIC70, Present compound as combined with ampicillin [3]: 50 µg/mL
MIC70, Present compound as combined with cephalexin [3]: 100 µg/mL
MIC70, Present compound as combined with mecillinam [3]: 0.39 µg/mL
MIC70, Present compound as combined with piperacillin [3]: 6.25 µg/mL

Structure (SMILES): C[C@]1(Cn2ccnn2)[C@H](C(=O)O)N2C(=O)C[C@H]2S1(=O)=O [Compound 22, sodium 2α-methyl-2β-(1,2,3-triazole-1-yl)-methylpenam-3α-carboxylate-1,1-dioxide]
IC50 [1]: 690 nM
MIC70, Present compound as combined with ampicillin [3]: 6.25 µg/mL
MIC70, Present compound as combined with cephalexin [3]: 50 µg/mL
MIC70, Present compound as combined with mecillinam [3]: 0.2 µg/mL
MIC70, Present compound as combined with piperacillin [3]: 1.56 µg/mL

MIC50 ([3]; read-out: MIC50, Piperacillin singly used): 50 µg/mL
MIC70, Piperacillin singly used [3, 5]: 200 µg/mL
Structure (SMILES): CCN1CCN(C(=O)N[C@@H](C(=O)N[C@@H]2C(=O)N3[C@@H]2SC(C)(C)[C@@H]3C(=O)O)c2ccccc2)C(=O)C1=O [Piperacillin, piperacillin, reference compound]

MIC (E.coli TH—34; read-out: MIC, Ampicillin): 800 µg/mL (≈ 2290 µM)
MIC (P.vulgaris IID OX—19; [6]): 100 µg/mL (≈ 286 µM)
MIC (P.vulgaris IID OX—19; [7]): 25 µg/mL (≈ 71.5 µM)
MIC (S.aureus S—54; 20 h, Table 3, inoculate 10^7 CFU/ml, singly used, read-out: MIC, Ampicillin): 100 µg/mL (≈ 286 µM)
MIC (S.aureus S—54; Table 2, 37°C, 20 hours, read-out: MIC, Ampicillin (singly used)): 25 µg/mL (≈ 71.5 µM)
MIC (S.aureus ATCC 90124; [6]): 25 µg/mL (≈ 71.5 µM)
MIC (S.aureus ATCC 90124; [7]): 50 µg/mL (≈ 143 µM)
MIC (E.coli TH—13; [6]): 400 µg/mL (≈ 1140 µM)
MIC (E.coli TH—13; [7]): 400 µg/mL (≈ 1140 µM)
MIC (S.marcescens TH—05; [6]): > 400 µg/mL
MIC (S.marcescens TH—05; [7]): 800 µg/mL (≈ 2290 µM)
MIC (P.mirabilis 121—1; read-out: MIC, Ampicillin): 800 µg/mL (≈ 2290 µM)
MIC (P.Mirabilis 121): > 400 µg/mL
MIC (E.coli TH—397): 400 µg/mL (≈ 1140 µM)
MIC50 ([3]; read-out: MIC50, Ampicillin singly used): 400 µg/mL
MIC70, Ampicillin singly used [3, 5]: >400 µg/mL
Structure (SMILES): CC1(C)S[C@@H]2[C@H](NC(=O)[C@H](N)c3ccccc3)C(=O)N2[C@H]1C(=O)O [Ampicillin, ampicillin]

Structure (SMILES): COC(=O)c1cnnn1C[C@@]1(C)[C@H](C(=O)O)N2C(=O)C[C@H]2S1(=O)=O [Compound 13, sodium 2β-(5-methoxycarbonyl-1,2,3-triazote-1-yl)methyl-2α-methylpenam-3α-carboxylate-1,1-dioxide]
IC50 [1]: 300 nM

MIC50 ([3]; read-out: MIC50, Cephalexin singly used): 25 µg/mL
MIC70, Cephalexin singly used [3, 5]: 100 µg/mL
Structure (SMILES): CC1=C(C(=O)O)N2C(=O)[C@@H](NC(=O)[C@H](N)c3ccccc3)[C@H]2SC1 [Cephalexin, cephalexin, reference compound]
